Measurements reported in the supplement of paper PMC10307832.

Key:
Experiment in all cases: relative viability (nuclei count vs DMSO), 5 days (fraction); higher = more cells survive
C-75 = compound: CCCCCCCC[C@H]1[C@@H](C(=C)C(=O)O1)C(=O)O [C-75]
Outline: (§1)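 Following overnight incubation at 37 °C, lung cancer cell lines in 1536-well plates were pinned with five library-drug doses (not always all listed) in √10 steps on vehicle-anchored plates. The cells then spent 5 days without medium change before a combined fix, permeabilisation and Hoechst stain, 4× imaging and MetaXpress nuclear counts. Viability is the treated-to-vehicle ratio of nuclei, taken as the median across plates. Only plates with control CV below 25% and at least one doubling passed.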

AZD7762 = compound: NC(=O)Nc1cc(-c2cccc(F)c2)sc1C(=O)N[C@H]1CCCNC1 [AZD7762]
Outline: as §1

[1] = compound: O=C(O)c1ccc(-c2c[nH]c3ncc(-c4ccccc4)cc23)cc1C1CCCC1
Outline: as §1

Navitoclax = compound: CC1(C)CCC(c2ccc(Cl)cc2)=C(CN2CCN(c3ccc(C(=O)NS(=O)(=O)c4ccc(N[C@H](CCN5CCOCC5)CSc5ccccc5)c(S(=O)(=O)C(F)(F)F)c4)cc3)CC2)C1 [Navitoclax]
Outline: as §1

XAV939 = compound: Oc1nc(-c2ccc(C(F)(F)F)cc2)nc2c1CSCC2 [XAV939]
Outline: as §1

Cell Line | relative viability (C-75; 0.08 µM) | relative viability (C-75; 0.253 µM) | relative viability (C-75; 0.8 µM) | relative viability (C-75; 2.53 µM) | relative viability (C-75; 8 µM) | relative viability (AZD7762; 0.01 µM) | relative viability (AZD7762; 0.03162 µM) | relative viability (AZD7762; 0.1 µM) | relative viability (AZD7762; 0.3162 µM) | relative viability (AZD7762; 1 µM) | relative viability ([1]; 0.04 µM) | relative viability ([1]; 0.1265 µM) | relative viability ([1]; 0.4 µM) | relative viability ([1]; 1.265 µM) | relative viability (Navitoclax; 0.005 µM) | relative viability (Navitoclax; 0.01581 µM) | relative viability (Navitoclax; 0.05 µM) | relative viability (Navitoclax; 0.1581 µM) | relative viability (Navitoclax; 0.5 µM) | relative viability (Navitoclax; 0.5 µM, anchor plate) | relative viability (XAV939; 0.08 µM) | relative viability (XAV939; 0.253 µM) | relative viability (XAV939; 0.8 µM) | relative viability (XAV939; 2.53 µM) | relative viability (AZD7762; 0.2 µM, anchor plate)
NCI-H2023 | 1 | 1.13 | 0.864 | 0.535 | 0.852 | 0.965 | 0.841 | 0.491 | 0.262 | 0.132 | 1.07 | 1.06 | 0.994 | 0.75 | 0.919 | 1.04 | 0.958 | 0.97 | 0.909 | 0.994 | 1.02 | 0.827 | 0.817 | 0.755 | 
NCI-H2085 | 1.04 | 0.974 | 0.988 | 0.866 | 0.975 | 1.03 | 0.992 | 1.08 | 1.05 | 0.864 | 0.932 | 1.04 | 0.956 | 0.933 | 1.01 | 1.14 | 0.93 | 1.01 | 1.05 | 1.12 | 1.05 | 0.893 | 0.902 | 0.891 | 0.973
NCI-H2087 | 1.06 | 0.963 | 0.941 | 0.915 | 0.924 | 1.02 | 1.08 | 1.26 | 1.23 | 1.24 | 1.12 | 1.14 | 1.04 | 0.794 | 1.01 | 1.16 |  | 1.01 | 1.09 | 0.952 | 1.32 | 0.781 | 1.07 | 0.849 | 1.24
NCI-H2126 | 0.949 | 1.14 | 0.957 | 0.919 | 0.943 | 0.972 | 1.07 | 1.05 | 1.02 | 1.09 | 1.1 | 1 | 0.992 | 0.923 | 1.04 | 1.07 | 0.901 | 0.927 | 0.976 | 0.852 | 1.01 | 0.826 | 0.822 | 0.807 | 1.01
NCI-H2170 | 0.984 | 0.94 | 0.943 | 0.913 | 0.954 | 1 | 1.01 | 1.02 | 0.989 | 0.972 | 1.01 | 1 | 0.937 | 0.904 | 1.02 | 1.06 | 1.06 | 0.935 | 0.748 | 0.636 | 0.937 | 0.886 | 0.939 | 0.785 | 0.858
NCI-H2228 | 0.969 | 1.09 | 0.952 | 0.986 | 1.06 | 1.17 | 0.982 | 0.997 | 0.649 | 0.361 | 0.942 | 1.09 | 0.924 | 0.639 | 0.965 | 1.01 |  | 0.968 | 1.11 | 0.968 | 1.01 | 0.811 | 0.921 | 0.88 | 
NCI-H2342 | 0.924 | 0.988 | 0.833 | 0.857 | 1.04 | 0.903 | 1.1 | 0.983 | 0.997 | 1.04 | 0.943 | 0.985 | 0.979 | 1.1 | 1.01 | 0.999 | 0.938 | 0.961 | 1.01 |  | 1.04 | 0.794 | 0.781 | 0.508 | 0.514
NCI-H2347 | 0.991 | 1.09 | 0.973 | 0.862 | 1.02 | 1.16 | 1.04 | 1.24 | 1.21 | 0.922 | 1.1 | 1.08 | 1.02 | 0.906 | 1.02 | 1.12 | 0.906 | 1.02 | 1.03 | 0.757 | 1.19 | 0.978 | 0.964 | 0.84 | 0.812
NCI-H2405 | 1.01 | 0.737 | 0.948 | 0.872 | 1.07 | 1.02 | 1.11 | 1.02 | 0.953 | 0.585 | 0.998 | 1.13 | 0.977 | 0.741 | 0.984 | 1.11 | 0.996 | 1.03 | 0.93 | 0.845 | 1.03 | 0.978 | 0.966 | 0.993 | 0.763
NCI-H3122 | 1 | 1 | 0.996 | 0.692 | 0.992 | 1.01 | 1.02 | 1.01 | 0.88 | 1.04 | 0.986 | 1.04 | 0.959 | 0.946 | 1.01 | 0.965 | 1.06 | 0.989 | 0.972 | 1.01 | 1.01 | 0.936 | 1.02 | 0.966 | 0.983
PC-3 [JPC-3] | 0.961 | 0.97 | 0.994 | 0.995 | 1.16 | 1.03 | 1.06 | 1.1 | 1.05 | 0.931 | 1.07 | 1.09 | 1 | 0.945 | 1.03 | 1.07 | 1.08 | 1.01 | 1.02 | 0.816 | 1.02 | 0.924 | 1.02 | 0.947 | 0.897
PC-14 | 0.939 | 0.86 | 0.902 | 0.927 | 1 | 1.03 | 0.995 | 0.931 | 0.562 | 0.368 | 0.956 | 1.12 | 1 | 0.962 | 1 | 1.16 | 1.05 | 0.981 | 0.956 | 1.01 | 1.1 | 0.933 | 0.974 | 0.885 | 0.39
RERF-LC-KJ | 1.02 | 1.14 | 0.981 | 0.95 | 1.06 | 0.976 | 1.03 | 1.06 | 1.04 | 0.959 | 1.02 | 0.96 | 0.985 | 0.916 | 0.973 | 0.98 | 0.961 | 1.01 | 0.997 | 0.987 | 0.968 | 0.862 | 0.859 | 0.743 | 1.03
